The procedure of series [1]: The partition coefficient is determined by means of various methods according to the value.
Series [2] can be described thus: Storage stability of formulations at −20° C. Format: physicochemical. The procedure:
The following formulations were tested for storage stability at −20° C.: […]
a) 1:5 Dilution in Solvent Naphtha (5 Parts):
b) 1:5:1 Dilution in 2-Ethylhexyl Nitrate (5 Parts) and Solvent Naphtha (1 Part)

A short description of series [3]: Motor oil compatibility to standard DGMK 531 1-A (filtration time). The conditions noted are these: for filtration time: 10 g additive + 10 g motor oil, 90° C. three days, 500 ml EN590 B7 diesel, 0.8 μm membrane filter, 200 mbar; for filterability / motor oil compatibility pass/fail: DGMK 531 1-A. The procedure: Determination to standard DGMK 531 1-A with EN590 B7 fuel from Aral, unadditized, and Wintershall Multi-Rekord Top 15W-40 motor oil.
10 g in each case of motor oil and 10 g of the additive to be tested are weighed into a 500 ml Erlenmeyer flask and homogenized. The flask containing the mixture is loosely sealed with a glass stopper and conditioned in a drying cabinet at a temperature of 90±3° C. for three days. After the conditioning, the sample is cooled in a fume hood at room temperature for one hour. The mixture is then made up with 500 ml of diesel fuel and mixed thoroughly. A membrane filter of diameter 50 mm and pore size 0.8 μm is inserted into the filtration apparatus. Mixture is filtered through the membrane filter with the aid of a reduced pressure of 200 mbar. The filtration time is measured.

Series [4] is described as follows: XUD9 engine test (keep clean), flow restriction, CEC F-23-01. The conditions noted are these: 0.1 mm needle stroke, Aral EN590 B7 fuel. The source says:
1. XUD9 Test—Determination of Flow Restriction
The procedure was according to the standard provisions of CEC F-23-01.
Test according to above procedure CEC F-23-01 in Peugeot XUD9 engine.

Series [5] in a line: DW10 Zn engine test (clean-up), engine power. The following applies: 25 mg/kg active compound. The procedure: 2.2. DW10 Dirty-Up Clean-Up (DU-CU)
The DU-CU test is based on CEC test procedure F-098-08 Issue 5. The procedure is described in Issue 5 of the test procedure (CEC F-98-08). This is done using the same test setup and the PEUGEOT DW10 engine type.
The DU-CU test consists of two individual tests which are run in succession. The first test serves to form deposits (DU), the second to remove the deposits (CU). After the DU, the power loss is determined. After the end of the DU run, the engine is not operated for at least 8 hours and is cooled to ambient temperature. Thereafter, the CU fuel is used to start the CU without deinstalling and cleaning the injectors. The deposits and power loss ideally decline over the course of the CU test.
The initial power P0,cu [kW] is calculated from the measured torque at full load 4000/min directly after the test has started and the engine has run hot in the CU. The procedure is likewise described in Issue 5 of the test procedure.
The final power (Pend,cu) is determined in the 12th cycle in stage 12 (see table, FIG. 2). Here too, the operation point is full load 4000/min. Pend,cu [kW] is calculated from the torque measured.
The test was conducted with a Peugeot DW10 engine, which is used in CEC F-98-08 procedure, except that more severe conditions were used in the dirty-up part:
I. Dirty-up: the more severe conditions allow distinctly faster formation of injector deposits than under standard CEC F-98-08 conditions: The engine was operated at full load (4000 rpm) with EN590 B7 Aral, unadditized, containing 3 mg/kg Zn, for 4 h.

The nature of series [6]: DW10 Na soap IDID test (clean-up), exhaust gas temperatures on cold start. The conditions noted are these: CU, 70 mg/kg active compound. As for the experimental part: 3. IDID Test—Determination of Additive Effect on Internal Injector Deposits
The formation of deposits within the injector was characterized by the deviations in the exhaust gas temperatures of the cylinders at the cylinder outlet on cold starting of the DW10 engine.
To promote the formation of deposits, 1 mg/l of sodium salt of an organic acid, 20 mg/l of dodecenylsuccinic acid and 10 mg/l of water were added to the fuel.
The test is conducted as a dirty-up clean-up test (DU-CU).
Thereafter, the CU fuel is used to start the CU without deinstalling and cleaning the injectors. After the CU run over 8 h, after a rest phase of at least eight hours, a cold start of the engine is conducted, followed by idling for 10 minutes. The evaluation is effected by the comparison of the temperature profiles for the individual cylinders after the cold start in the DU and CU runs.
The IDID test indicates the formation of internal deposits in the injector. The characteristic used in this test is the exhaust gas temperature of the individual cylinders. In an injector system without IDIDs, the exhaust gas temperatures of the cylinders increase homogeneously.
The temperature sensors are beyond the cylinder head outlet in the exhaust gas manifold. Significant deviation of the individual cylinder temperatures (e.g. >20° C.) indicates the presence of internal injector deposits (IDIDs).
The tests (DU and CU) are each conducted with run time 8 h. The one-hour test cycle from CEC F-098-08 (see FIG. 1) is run through 8 times in each case. In the event of deviations of the individual cylinder temperatures of greater than 45° C. from the mean for all 4 cylinders, the test is stopped early.
To examine the influence of the additives on the performance of direct injection diesel engines, as a further test method, the IDID engine test was conducted, in which the exhaust gas temperatures in the cylinders at the cylinder outlet were determined on cold starting of the DW10 engine. (cf. method description above)
A DW10 direct injection diesel engine with common rail system from the manufacturer Peugeot was used, which was employed in the CEC F-098-08 test method. The method that was used derived from CEC F-098-08, with the difference that, rather than 1 ppm of Zn for artificial inducement of formation of deposits, 1 ppm by weight of sodium naphthenate and 20 ppm by weight of dodecenylsuccinic acid were used in each case. The fuel used was a commercial B7 diesel fuel according to EN 590 from Aral. The test duration is shortened to 8 hours compared to method CEC F-098-08. After respective DU and CU phases, the engine is cooled and then started at idling speed.
II. CU (clean-up) After the DU phase, the engine is operated with additized fuel without cleaning the injectors beforehand.
Again, the exhaust gas temperatures of the 4 cylinders (“C1” to “C4”) were measured at each of the cylinder outlets after 0 minutes (“ϑ0”) and after 5 minutes (“ϑ5”). The results of the exhaust gas temperature measurements with average values (“Δ”) and the greatest differences from Δ in the downward (“−”) and upward (“+”) directions for the two test runs are summarized in the following overview: […]

Series [7] can be described thus: DW10 Na power-loss test (keep-clean). The following applies: 8 h, 1 ppm Na + 20 ppm dodecenylsuccinic acid and 150 ppm additive. The procedure:
To examine the efficacy of the inventive compounds against power loss caused by metals such as Na, K and others (and not by Zn as described above), an IDID engine test was used. During the run, the power is measured to CEC F-098-08.

The mark [8] stands for this setting: 1:5:1 dilution in 2-ethylhexyl nitrate (5 parts) and Solvent Naphtha (1 part).
The mark [9] stands for this setting: 1:5 dilution in Solvent Naphtha (5 parts).

Take `CCCCC(CC)CO` (stereo not drawn) [2-ethylhexanol]: in series [1], the “partition coefficient log Pow” value is reported as 2.9.

Turning to `CCCCCO` [pentanol], the “partition coefficient log Pow” value in series [1] worked out at 1.3.

Turning to “C12/14-NMe3-2-Propylheptyl Oxalate [Inventive example 1]”, the storage stability observation entry in series [2] (setting [8]) is given as “clear liquid after 14 days”. The storage stability observation result in series [2] (setting [9]) is given as “clear liquid after 60 days”. Moreover, in series [3], the filtration time is 114 s, the filterability entry is reported as “good filterability” and the “motor oil compatibility pass/fail” value is on record as “pass”. Moreover, in series [4] (dosage 24 mg/kg), the Flow restriction worked out at 46.6%. Also, in series [4] (dosage 36 mg/kg), the Flow restriction was found to be 14.5%. In series [4] (dosage 48 mg/kg), the Flow restriction is reported as 4.5%. The “Engine power on commencement of clean-up test” value in series [5] (1 ppm Zn in EN590 B7, after dirty-up) is reported as 90.2 kW. Moreover, in series [5] (1 ppm Zn in EN590 B7, clean-up), the “Engine power after engine running for 3 h” value amounted to 97.7 kW. In addition, in series [5] (1 ppm Zn in EN590 B7, clean-up lasting 8 h), the “Engine power until the end of the clean-up test” value is 97.7 kW. In series [6], the “average exhaust gas temperature (Δ)” value was 77 °C, the “evaluation of IDID clean-up” value is “the IDIDs formed were removed”, the “greatest difference from Δ in the downward direction” value was −8 °C and the “greatest difference from Δ in the upward direction” value was “+5 °C”. Also, in series [6] (after 0 minutes (ϑ0)), the “exhaust gas temperature cylinder C1” value is “C1: 28 °C”, the “exhaust gas temperature cylinder C2” value was “C2: 27 °C”, the “exhaust gas temperature cylinder C3” value is “C3: 27 °C” and the “exhaust gas temperature cylinder C4” value is “C4: 26 °C”. In series [6] (after 5 minutes (ϑ5)), the “exhaust gas temperature cylinder C1” value is “C1: 78 °C”, the “exhaust gas temperature cylinder C2” value was “C2: 82 °C”, the “exhaust gas temperature cylinder C3” value was “C3: 77 °C” and the “exhaust gas temperature cylinder C4” value is “C4: 69 °C”. Besides, in series [7], the “Change in power in the test” value is “+0.2%”, the “Engine power after the test” value came out at 96.6 kW and the “Engine power before the test” value is recorded as 96.4 kW.

With “C12/14-NMe3-Methyl Oxalate [Comparative example 1, reference compound]”, the storage stability observation result in series [2] (setting [8]) was “solidification after 1 day”. Also, the storage stability observation result in series [2] (setting [9]) is reported as “solidification after 44 days”. Moreover, in series [3], the filtration time is more than 300 s, the filterability result is on record as “very poor filterability” and the “motor oil compatibility pass/fail” value is given as “fail”.

The values are drawn from patent US10815444B2, “Use of specific derivatives of quaternized nitrogen compounds as additives in fuels and lubricants” (BASF SE, priority 2013, dated 2020).
